Measurements: patent US8937065B2, “Compositions and methods for modulating a kinase” (Clevexel Pharma, priority 2011, dated 2015)

Key:
[1] = system: B cell receptor NFAT-bla RA1; experiment: B cell receptor NFAT-bla RA1 inhibition (goat anti-human IgM stimulated, Ramos cells); conditions: read-out: IC50 B cells mechanism-based: Ramos cells IgM stimulated NFAT activity
Experimental: The inhibition of B cell receptor NFAT-bla RA 1 (activated by goat anti-human IgM, which stimulates the SYK signaling pathway) by several compounds was determined using the Screening Protocol and Assay Conditions (Invitrogen, Madison, Wis.). The assays were performed according to manufacturer's protocols. See Example 4, Cell-line Specific Protocols B cell receptor activity in Ramos cells for details.
Mechanism-based inhibition assays using compound 7A (Table 1) were performed using GeneBLAzer® Technology (Invitrogen Corporation), according to manufacturer specifications. […] In this state, excitation of the coumarin results in fluorescence resonance energy transfer to the fluorescein moiety and emission of green light. […] Excitation of the coumarin in the presence of Beta-lactamase activity results in a blue fluorescence signal. […]
An activator assay screen was run to obtain the EC80 concentration of the known activator to add in step 3. • 1. […] 4 μL of the EC80 concentration of activator, as determined in an Activator assay, was added to all wells containing compound and known inhibitor to bring the final assay volume to 40 μL. • 4. […] The assay plate was read on a fluorescence plate reader (Tecan Safire) and the data is analyzed. […]
NFAT-bla RA1 cells were thawed. […] The plate was read on a fluorescence plate reader.

Molt-4 cells = experiment: Proliferation of Molt-4 cells (Cell Titer-Glo); conditions: Homo sapiens, T cells, outcome-based, read-out: IC50 Proliferation Molt-4 cells (ALL)
RL cells = experiment: Proliferation of RL cells (Cell Titer-Glo); conditions: Homo sapiens, B cells, outcome-based, read-out: IC50 Proliferation RL cells (Non-Hodjkin lymphoma)
Caco-2 = Caco-2 permeability and efflux; type: in vitro ADME
NALM-6 cells = experiment: Proliferation of NALM-6 cells (cell proliferation index, flow cytometry); conditions: Homo sapiens, B cells, outcome-based, read-out: IC50 Proliferation NALM-6 cells (ALL)
Experimental: Cell proliferation of the human B cell precursor leukemia tumor cell line NALM-6 was measured by a cell proliferation index assay. This assay was based on the dilution rate of a fluorescent membrane marker which is directly linked to the cell division. Briefly, the assay was performed by loading the cells with a non-toxic fluorescent phospholipid analog before the seeding. The probe inserts stably into the plasmic membrane and was distributed between daughter cells after division. Flow cytometry analysis of the fluorescent probe was performed directly after the loading of the cells and after 96 hours of culture. The dilution rate of the fluorescent probe at the single cell level was directly correlated to the number of cell divisions. All experiments were performed in triplicate.
Detection of cellular events was performed in triplicate in 96 well-plates after 72 hours of treatment by automated flow cytometry. Non-linear regressions were performed with GraphPad Prism 4.01 software.
Cells were previously thawed and amplified in standard culture conditions (37° C., 5% CO2). NALM-6 cells were cultivated in RPMI 1640+10% inactivated Fetal Bovine Serum. […]
Day 4: After 72 hours of treatment, the cells were analyzed by automated flow cytometry.

[2] = 6-day maximum tolerated dose safety study in female ICR nude mice; type: in vivo
Experimental: Compounds of the invention are safe for administration. For example, excellent safety data was obtained in a 6-day maximum tolerated dose study at 100 mg/kg and 300 mg/kg of compound 7A, PO administered to six to eight-week old female ICR nude mice.

Namalwa cells = experiment: Proliferation of Namalwa cells (Cell Titer-Glo); conditions: Homo sapiens, B-cell, outcome-based, read-out: IC50 Proliferation Namalwa cells (Burkitt's Lymphoma)
Protein binding = type: in vitro ADME
[3] = 100 mg/kg and 300 mg/kg PO, 6-day study, female ICR nude mice

O=C(CN1CCOCC1)Nc1cccc(-c2nc(-c3c[nH]c(C(=O)N4CCCC4)c3)cs2)c1 [7A, 2-morpholino-N-(3-(4-(5-(pyrrolidine-1-carbonyl)-1H-pyrrol-3-yl)thiazol-2-yl)phenyl)acetamide]
IC50 [1]: 0.124 µM | IC50 (Molt-4 cells): 35 µM | IC50 (RL cells): 26 µM | Caco-2 Eflux (Caco-2; Caco-2): no | Caco-2 Papp A-B (×10^6/cm · s^−1) (Caco-2; Caco-2, A-B): 24 ×10^6/cm · s^−1 | IC50 (NALM-6 cells): 0.48 µM | change in food consumption [2, 3]: no change in food consumption | clinical observation [2, 3]: no abnormalities in clinical observation | necropsy (internal and external) [2, 3]: normal | weight loss [2, 3]: no weight loss | Individual food consumption (g) Day 1 ([2]; PO-High 300 mg/kg): 4.45 g | Individual food consumption (g) Day 6 ([2]; PO-High 300 mg/kg): 5.13 g | Individual food consumption (g) Day 1 ([2]; PO-Low 100 mg/kg): 4.61 g | Individual food consumption (g) Day 6 ([2]; PO-Low 100 mg/kg): 5.44 g | IC50 (Namalwa cells): 28 µM | fraction unbound (Protein binding): 0.02
